Data from patent EP2769738B1, “Conjugated TLR7 and/or TLR8 and TLR2 polycationic agonists” (Invivogen, priority 2013, dated 2014).
Several values for one entry are separate records, joined by “and”; a condition that tells them apart may be missing. Equal values may be shown once.

Columns and labels:
[1] = Determination of nanoparticle (lipoplex) size by dynamic light scattering; format: physicochemical; details: ratio 3:24 (w:w); for Conformity (C)/ Non-conformity (NC) / Mean Diameter (nm): complexes with pDNA; for Mean Diameter (nm): dynamic light scattering at 25°C; for Mean Diameter (nm) / PDI: triplicate measurements; for PDI: polydispersity index of complexes with pDNA, 25°C
Protocol: • 1. Preparative HPLC Method: Unless otherwise indicated, the compounds described herein were purified by RP-MPLC ARMEN® Spot Flash Liquid Chromatography (ARMEN Instrument, Saint Ave, France) on a preparative column (SVF D26) packed with 25-40 µm C18 resin (Merck chimie SAS), by applying a linear gradient of 0-10% MeCN in NH4OAc (10 mM) solution (pH = 9) over 60 min at a 15 mL/min flow rate. The purification was monitored at 254 nm. Suitable fractions were pooled and lyophilised. • 2. Proton NMR Spectra: Unless otherwise indicated, all ^1H NMR spectra were run on a Bruker series 300 MHz instrument. Where so characterized, all observed protons are reported as parts-per-million (ppm) downfield from tetramethylsilane (TMS) or other internal reference in the appropriate solvent indicated. NMR spectra were recorded on a Brucker 300 spectrometer. For ^1H (300 MHz) spectra δ values were referenced to CDCI3-d1 (7.26 ppm), DMSO- d6 (2.50 ppm), D2O-d2 (4.79 ppm) or MeOD-d4 (3.31 ppm). The peak patterns are indicated as follows: s: singlet, sl: large singlet, d: doublet, t: triplet, q: quartet, m: multiplet. • 3. Mass Spectra (MS): Analyses were run on an Agilent Model 6130 quadrupole MS. Unless otherwise indicated, all mass spectral data for starting materials, intermediates and/or exemplary compounds are reported as mass/charge (m/z), having an (M+H)^+ molecular ion. The molecular ion reported was obtained by electrospray detection method (commonly referred to as an ESI MS). Compounds having an isotopic atom, such as bromine and the like, are generally reported according to the detected isotopic pattern, as appreciated by those skilled in the art. • 4. Particle size: Particle size was determined using a Malvern Nanosizer (Malvern, Worcestershire, UK) and Malvern ZETASIZER.RTM. (Malvern, Worcestershire, UK). • 5. Naming Convention The compounds disclosed and described herein have been named using the naming convention provided with Chem-Draw Ultra 11.0 software, available in Chem. Office. In some instances, compounds were named with the term "spermine" inserted where appropriate. For example, where the spermine is substituted with Boc, "N1,N5,N10-TriBoc-spermine" is added to the Chem-Draw nomenclature in the appropriate place. Chem-Draw utilizes the ISIS Draw software compound naming convention, as appreciated by those skilled in the art.
For pDNA:TLR7-TLR2 polyamine molecules complexes, a ratio pDNA:TLR7-TLR2 polyamine molecules of 3:24 (w:w) was prepared in serum-free culture medium or in 5% glucose. The TLR7-TLR2 conjugated compound of interest was prediluted in serum-free culture medium or in 5% glucose and incubated for 5 minutes at room temperature, prior to the addition of an endotoxin-free, salt-free preparation of pDNA. In these experiments, the pBsr2pCpGLacZh plasmid was used in the pDNA:TLR7-TLR2 polyamine molecule complexes. The pDNA:TLR7-TLR2 polyamine molecule mixtures were incubated at room temperature for 30 minutes to allow the formation of the complex. The control used in these experiments was the cationic lipid transfection agent LyoVec™ (InvivoGen) prepared in a similar manner.
In order to confirm that TLR7-TLR2 polyamine molecules complex DNA, lipoplex size was determined. The physical characterization of complex was achieved by dynamic light scattering using the analytical equipment for laser diffraction Zetasizer Nano-ZS (Malvern). pDNA:TLR7-TLR2 polyamine molecule complexes were prepared as described above. Subsequently, 50µl of pDNA: TLR7-TLR2 polyamine molecule complexes were placed into a disposable sizing cuvette and measurements were made under conditions defined according to manufacturer's instructions. The measurements were made at 25°C in triplicate and a size distribution report was obtained. […]

[2] = tested on: B16-F1 cells; test: Cell transfection with SEAP plasmid, B16-F1; format: cell-based, mouse; details: Figure 5B; in complex with pVitro14 LGFP SEAP plasmid, 48 hours, SEAP reporter gene expression
Protocol: (§1) The TLR7-TLR2 molecules were tested for their ability as polyamine molecules to transport plasmid DNA (pDNA) into cells. The pVitro14 LGFP SEAP plasmid (InvivoGen) was complexed to TLR7-TLR2 polyamine molecules and to the control cationic lipid transfection agent, LyoVec™ (InvivoGen). The human HEK293 (ATCC, CRL-1573) and mouse B16-F1 melanoma (ATCC, CRL-6323) cell lines were seeded at a density of 50 000 cells/well and 20 000 cells/well respectively, in the absence or presence of different volumes of the plasmid encoding for the SEAP protein in complex with TLR7-TLR2 polyamine molecules for 48 hours at 37°C and 10% CO2. Transfection efficiency was assessed by measuring SEAP reporter gene expression: 20 µl of supernatant was sampled and mixed with 180 µl of QUANTI-Blue™ Detection (InvivoGen). In the presence of alkaline phosphatase SEAP, the color of QUANTI-Blue™ changes from pink to purple/blue. The intensity of the blue hue reflects the activity of SEAP. The levels of SEAP secretion were determined quantitatively by reading the OD at 620-655 nm using a spectrophotometer, iMark™ Microplate Reader (BIO-RAD).

[3] = tested on: HEK293 cells; test: Cell transfection with SEAP plasmid, HEK293; format: cell-based, human; details: Figure 5A; in complex with pVitro14 LGFP SEAP plasmid, 48 hours, SEAP reporter gene expression
Protocol: as §1

[4] = tested on: B16-F1 tumor; test: Mouse B16-F1 tumor model, molecule alone; format: in vivo, C57BL/6 mice; details: intra-tumoral, 3 injections
Protocol: Measurements were performed under gas anesthesia.
The second group received intra-tumoral injections of CL413 molecule alone (a TLR7-TLR2 Pam2CSK4-based molecule). Third and forth groups received intra-tumoral injections of the TLR2 ligand, Pam2CSK4 alone, and the TLR7 ligand alone, respectively. A fifth group received a combined treatment of Pam2CSK4 and TLR7 ligand, in solution at the equivalent molecule quantity of the respective TLR2 and TLR7 moieties in CL413 (in 100µl Bionolyte G5® with Pluronic® F-68 2%) for a total of 3 injections.

Structure (SMILES)	Conformity (C)/ Non-conformity (NC) [1]	Mean Diameter (nm) [1]	PDI [1]	ability to transfect B16-F1 cells [2]	ability to transfect HEK293 cells [3]	tumor volume ([4]; Figure 8A, by day 23, compared to Pam2CSK4 alone, TLR7 ligand alone and vehicle control)	mice still alive (survival) ([4]; Figure 8B, by day 42) [%]
CCCCCCCCCCCCCCCC(=O)OCC(CSC[C@@H](N)C(=O)N[C@@H](CO)C(=O)N[C@@H](CCCCN)C(=O)N[C@@H](CCCCN)C(=O)N[C@@H](CCCCN)C(=O)N[C@H](CCCCN)C(=O)Nc1ccc(Cn2c(O)nc3c(N)nc(NCCCC)nc32)cc1)OC(=O)CCCCCCCCCCCCCCC (stereo in doubt) [CL413, (6S,9S,12S,15S,18S,21R)-6,25-diamino-21-(4-((6-amino-2-(butylamino)-8-hydroxy-9H-purin-9-yl)methyl)phenylcarbamoyl)-12,15,18-tris(4-aminobutyl)-9-(hydroxylmethyl)-7,10, 13,16,19-pentaoxo-4-thia-8,11,14,17,20-pentaazapentacosane-1,2-diyl dipalmitate]	C (ranged between 140 and 200 nm in diameter were considered to show conformity)	140,1 nm and 140,2 nm and 139,1 nm	0,178 and 0,187 and 0,229	lack the ability to transfect cells	lack the ability to transfect cells	no increase in tumor volume	100
CCCCCCCCCCCCCCCC(=O)N[C@@H](CSCC(COC(=O)CCCCCCCCCCCCCCC)OC(=O)CCCCCCCCCCCCCCC)C(=O)N[C@@H](CO)C(=O)N[C@@H](CCCCN)C(=O)N[C@@H](CCCCN)C(=O)N[C@@H](CCCCN)C(=O)N[C@@H](CCCCN)C(=O)Nc1ccc(Cn2c(O)nc3c(N)nc(NCCCC)nc32)cc1 (stereo partly drawn) [CL534, ((6R,9S,12S,15S,18S,21S)-25-amino-21-(4-((6-amino-2-(butylamino)-8-hydroxy-9H-purin-9-yl)methyl)phenylcarbamoyl)-12,15,18-tris(4-aminobutyl)-9-(hydroxylmethyl)-7,10,13,16,19-pentaoxo-6-palmitamido-4-thia-8,11,14,17,20-pentaazapentacosane-1,2-diyl dipalmitate]	C (ranged between 140 and 200 nm in diameter were considered to show conformity)	165,5 nm and 187,1 nm and 182,3 nm	0,352 and 0,394 and 0,354	lack the ability to transfect cells	lack the ability to transfect cells	–	–
